Source: patent publication US20150010474A1, “Compounds And Methods For Selective Imaging And/Or Ablation” (Auckland Uniservices Limited, priority 2011, published 2015)

Columns and labels:
[1] = tested on: HCT116 wild type (WT) cancer cells; experiment: Inhibition of cell proliferation, low cell density IC50 assay; assay type: cell-based; conditions: Homo sapiens, HCT-116; 4 hour drug exposure, washing and regrowth for 5 days
Protocol: (§1) IC50 values were determined as the concentration of prodrug required to inhibit cell growth by 50% of untreated controls following 4 hour drug exposure, with washing and regrowth for 5 days. WT:NfsA ratios were determined as the WT IC50/NfsA IC50.

[2] = tested on: HCT116 cells overexpressing the nitroreductase NfsA from E. coli; experiment: as above; assay type: cell-based, human; conditions: for IC50: Homo sapiens, HCT-116, 4 hour drug exposure, washing and regrowth for 5 days; for WT:NfsA: WT IC50/NfsA IC50
Protocol: as §1

[3] = tested on: HCT-116 cells stably over-expressing cytochrome P450 reductase (CYPOR); experiment: Flow cytometry of metabolism and binding (EF5 antibody); assay type: cell-based, human; conditions: 2 h
Protocol: FIG. 4 illustrates the results of a second independent flow cytometry analysis of compound 15 and 93 metabolism and binding in wild-type HCT-116 cells, HCT-116 cells stably over-expressing cytochrome P450 reductase (CYPOR), a human one-electron reductase known to metabolise nitroheterocyclic and nitroaromatic compounds, or HCT-116 cells stably expressing the bacterial nitroreductase E. coli NfsA. 1×10^6HCT-116 cells were seeded in 6 well plates underaerobic conditions (21% O2, 5% CO2). After 2 h incubation, drug free control (wild-type HCT-116, foreground), 20 μM (wild-type HCT-116, second plot), 100 μM (wild-type HCT-116, third plot), 20 μM (HCT-116-CYPOR, forth plot), 100 μM (HCT-116-CYPOR, fifth plot) or 20 μM (HCT-116-NfsA, sixth plot) of compound 15 or 93 was added. After 2 h incubation cells were harvested and fixed with paraformaldehyde before being incubated overnight with 100 μl of 75 μg/ml EF5 CY5 conjugated antibody. Samples were then analysed on a Becton Dickinson FACscan flow cytometer.
FIG. 5 illustrates the results of flow cytometry analysis of HCT-116 cells stably over-expressing cytochrome P450 reductase (CYPOR), a human one-electron reductase known to metabolise nitroheterocyclic and nitroaromatic compounds. 1×10^6HCT-116-CYPOR cells were seeded in 6 well plates in aerobic, anoxic and 0.2% oxygen conditions designed to replicate the lower limit of pathological hypoxia observed in human tumours. After 2 h incubation, drug free control (foreground), 20 μM (middle) or 100 μM (background) of compound 15 or 67 was added. After 2 h incubation cells were harvested and fixed with paraformaldehyde before being incubated overnight with 100 μl of 75 μg/ml EF5 CY5 conjugated antibody. Samples were then analysed on a Becton Dickinson FAC scan flow cytometer.
FIG. 6 illustrates the results of flow cytometry analysis of compound 15 and 93 metabolism and binding in wild-type HCT-116 cells and HCT-116 cells stably over-expressing cytochrome P450 reductase (CYPOR), a human one-electron reductase known to metabolise nitroheterocyclic and nitroaromatic compounds. 1×10^6 HCT-116 cells were seeded in 6 well plates underanoxic conditions. After 2 h incubation, drug free control (wild-type HCT-116, foreground), 20 μM (wild-type HCT-116, second plot), 100 μM (wild-type HCT-116, third plot), 20 μM (HCT-116-CYPOR, forth plot) or 100 μM (HCT-116-CYPOR, fifth plot) of compound 15 or 93 was added. After 2 h incubation cells were harvested and fixed with paraformaldehyde before being incubated overnight with 100 μl of 75 μg/ml EF5 CY5 conjugated antibody. Samples were then analysed on a Becton Dickinson FACscan flow cytometer.

[4] = tested on: nfsA expressing HCT116 cells; conditions: 0.7 mM-hr cold EF5; cited from earlier work
[5] = cited from earlier work
NfrA (B.s) = biological target: T1, NfrA (B.s) (Bacillus subtilis, UniProt P39605); experiment: Initial rate of metabolism by purified recombinant bacterial nitroreductase (NADPH consumption, UV/Vis); assay type: biochemical; conditions: compound 500 μM, NADPH 200 μM, 10 mM Tris-Cl pH 7.0; μmol NADPH consumed per mg enzyme per minute
T1 construct: made in house
Protocol: (§2) The relative initial rates of reductive metabolism of the nitro moiety of test compounds by bacterial nitroreductase's can be measured experimentally by incubating the test compound at near-saturating concentration (determined empirically) with the purified recombinant bacterial nitroreductase enzymes in the presence of NADPH co-factor. UV/Vis spectroscopy is used to measure consumption of the co-factor, indicating metabolism of the test compound by the nitroreductase.
(§3) Compounds 67, 93 and 97 (500 μM) were added to NADPH (200 μM) in 10 mM Tris-Cl pH 7.0. Reactions were initiated by enzyme addition (between 5 and 20 μg per reaction). Rates represent μmol of NADPH consumed per mg enzyme added per minute.

NfsA (E.c) = biological target: T2, NfsA (E.c) (Escherichia coli, UniProt P17117); experiment: as above; assay type: biochemical; conditions: compound 500 μM, NADPH 200 μM, 10 mM Tris-Cl pH 7.0; μmol NADPH consumed per mg enzyme per minute
T2 construct: made in house
Protocol: as §2, §3

NfsB (E.c) = biological target: T3, NfsB (E.c) (Escherichia coli, UniProt P38489); experiment: as above; assay type: biochemical; conditions: compound 500 μM, NADPH 200 μM, 10 mM Tris-Cl pH 7.0; μmol NADPH consumed per mg enzyme per minute
T3 construct: made in house
Protocol: as §2, §3

YcnD (B.s) = biological target: T4, YcnD (B.s) (Bacillus subtilis, UniProt P94424); experiment: as above; assay type: biochemical; conditions: compound 500 μM, NADPH 200 μM, 10 mM Tris-Cl pH 7.0; μmol NADPH consumed per mg enzyme per minute
T4 construct: made in house
Protocol: as §2, §3

[6] = tested on: NTR over-expressing E. coli SOS-R2; experiment: Growth Inhibition assay in 58-membered NTR over-expression library; assay type: cell-based, Escherichia coli; conditions: 4 h incubation
[7] = tested on: bacterial nitroreductase over-expressing E. coli strains; experiment: IC50 (turbidity) in selected NTR over-expressing library strains; assay type: cell-based, Escherichia coli; conditions: 4 h post-challenge, serial dilution
Protocol: FIG. 2.3 illustrates the IC50 of compound 67 for selected NTR library strains (i.e. the concentration of compound 67 that yielded only 50% turbidity relative to an unchallenged control 4 h post-challenge, in replicate cultures across a serial dilution of compound 67). The strains selected were all those observed to have SOS activity above the empty plasmid control (“Empty”) in response to challenge with compound 67 as illustrated in FIG. 2(B), plus NfsB (E.c) as a negative control. For the IC50 assays, 100 μl of overnight cultures were used to inoculate 2 ml M63 minimal medium supplemented with 100 μg·ml^−1 ampicillin and 50 μM IPTG and incubated at 30° C., 200 rpm for 3.5 h. 40 μL aliquots from each culture were then added to individual wells of a sterile 384 well plate, each already containing 40 μl of ampicillin and IPTG-supplemented M63 medium and a dilution series of compound 67 as indicated on the X-axis of panel A. A. Raw growth curves. Each NTR over-expression strain was tested at least in duplicate (independent replicates), with the exception of NfsB (E.c), which was only measured once. Culture turbidity was monitored by optical density at 600 nm 4 h post-challenge. B. IC50 values calculated by comparison of the challenged cells with the unchallenged control for each strain, after subtracting the initial absorbance values (t=0 h), using SigmaPlot 10.0 (Systat Software Inc., Richmond, Calif.). Errors are 1 standard error of the mean (SEM).
(§4) FIG. 2.4 illustrates the IC50 of compound 93 for selected NTR library strains. […] B. IC50 values calculated by comparison of the challenged cells with the unchallenged control for each strain, after subtracting the initial absorbance values (t=0 h), using SigmaPlot 10.0 (Systat Software Inc., Richmond, Calif.). […]
as §4, with “2.5” for “2.4”, “97” for “93”

[8] = tested on: human solid tumour xenograft NCI-H1299 (WT); experiment: Hypoxia-dependent binding by ex vivo flow cytometry with pimonidazole co-staining; assay type: in vivo, NIH-III nude mice; conditions: 60 mg/kg i.p.; tumours excised after 120 minutes, single cell suspension
Protocol: FIG. 11 illustrates the absence of hypoxic-dependent binding of compound 67 and compound 93 by flow cytometry in the human solid tumour xenograft NCI-H1299, with reference to hypoxia staining by compound 15 and pimonidazole (Hypoxyprobe™) as internal standards (positive controls). NCI-H1299 WT tumours were inoculated subcutaneously onto the flank of NIH-III nude mice. When the mixed tumours reached approximately 800 mm^3, mice were dosed i.p. with 60 mg/kg of pimonidazole, and 60 minutes later dosed with either 60 mg/kg of compound 15, or 60 mg/kg of compound 67, or 60 mg/kg of compound 93. After 120 minutes the tumours were excised and enzyme digested to form a single cell suspension before fixation in ice cold 80% ethanol. Single cell immunodetection of bound adducts of compounds was performed using a monoclonal antibody (Mab1, hybridoma clone 4.3.11.3) conjugated to Alexa-488 (Ex/Em 499/519; green) for the detection of pimonidazole adducts, and monoclonal antibody ELK3-51 directly conjugated to the fluorophore CY5 (Ex/Em 650/670 nm; red) for detection of adducts formed by compound 15 or compound 67 or compound 93. The ex-vivo tumour cell samples were analysed on a Becton Dickinson FACscan flow cytometer using FACS Diva software. Integrated fluorescence measurements were recorded for 10,000 single non-debris events. Fluorescence emission was monitored at 530 nm±20 and 670-700 nm for detection of Alexa-488 and CY5 conjugated monoclonal antibodies, respectively.

T3 sequence (P38489 whole entry): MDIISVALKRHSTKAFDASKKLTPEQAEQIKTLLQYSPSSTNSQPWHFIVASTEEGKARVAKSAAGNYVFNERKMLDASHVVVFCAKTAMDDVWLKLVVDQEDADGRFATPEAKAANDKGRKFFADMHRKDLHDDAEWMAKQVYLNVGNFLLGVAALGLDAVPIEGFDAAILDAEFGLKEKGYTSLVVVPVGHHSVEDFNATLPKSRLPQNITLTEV
T4 sequence (P94424 whole entry): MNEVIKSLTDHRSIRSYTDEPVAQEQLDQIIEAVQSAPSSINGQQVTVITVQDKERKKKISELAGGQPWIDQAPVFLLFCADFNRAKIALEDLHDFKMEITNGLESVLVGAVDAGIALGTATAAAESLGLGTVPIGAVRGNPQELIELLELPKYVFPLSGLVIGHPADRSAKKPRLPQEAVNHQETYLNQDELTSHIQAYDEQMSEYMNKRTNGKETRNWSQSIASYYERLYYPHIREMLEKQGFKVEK
T2 sequence (P17117 whole entry): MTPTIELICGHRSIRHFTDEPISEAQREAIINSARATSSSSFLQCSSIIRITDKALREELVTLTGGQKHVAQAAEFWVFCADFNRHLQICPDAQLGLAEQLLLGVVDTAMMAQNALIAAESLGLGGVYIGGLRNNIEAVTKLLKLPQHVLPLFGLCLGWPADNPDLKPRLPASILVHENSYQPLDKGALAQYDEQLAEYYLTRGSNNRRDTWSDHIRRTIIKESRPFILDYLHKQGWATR
T1 sequence (P39605 whole entry): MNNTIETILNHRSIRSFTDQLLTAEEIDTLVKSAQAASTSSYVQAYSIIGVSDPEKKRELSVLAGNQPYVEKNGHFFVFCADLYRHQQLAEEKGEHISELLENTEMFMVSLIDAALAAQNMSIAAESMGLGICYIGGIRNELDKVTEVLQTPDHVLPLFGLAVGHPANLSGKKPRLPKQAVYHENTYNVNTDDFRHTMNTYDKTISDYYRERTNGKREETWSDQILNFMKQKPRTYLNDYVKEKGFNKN

For `O=C(Cn1ccnc1[N+](=O)[O-])NCC(F)(F)C(F)(F)F` [Compound 15, 2-(2-nitro-1H-imidazol-1-yl)-N-(2,2,3,3,3-pentafluoropropyl)acetamide], the IC50 [1] was 2270 µM, the IC50 [2] was 1 µM and the “WT:NfsA” value [2] was 2270. For the same compound, the “Metabolism and binding by FACS, HCT-116-CYPOR cells (FIG. 4)” value ([3]; 20 μM and 100 μM, aerobic conditions) was “minimal metabolism and binding”, the “Metabolism and binding by FACS, HCT-116-CYPOR cells, anoxia (FIG. 6)” value ([3]; 20 μM and 100 μM, anoxic conditions) was “significant dose-dependent and reductase dependent increases in metabolism and binding” and the “Metabolism and binding by FACS, HCT-116-CYPOR cells, 0.2% oxygen (FIG. 5)” value ([3]; 20 μM or 100 μM, 0.2% oxygen) was “Significant dose-dependent increases in metabolism”. The “Metabolism and binding by FACS, HCT-116-CYPOR cells, aerobic (FIG. 5)” value ([3]; 20 μM or 100 μM, aerobic) was “negligible metabolism and binding”, the “Metabolism and binding by FACS, HCT-116-CYPOR cells, anoxia (FIG. 5)” value ([3]; 20 μM or 100 μM, anoxia) was “Significant dose-dependent increases in metabolism” and the “Loss of viability for nfsA expressing HCT116 cells” value [4] was 90%. For the same compound, the “Concentration-time achieved in human plasma” value ([5]; cold EF5 9 mg/kg) was 0.89 mM-hr, the “Plasma AUC” value ([5]; dose of 21 mg/kg injected) was 2 mM-hr and the “Tolerability of injected dose” value ([5]; dose of 21 mg/kg) was “safely injected without any toxicities”.

In the case of `O=[N+]([O-])c1nccn1Cc1cn(C(CO)CF)nn1` (stereo not drawn) [Compound 19, reference compound], the IC50 [1] is reported as > 12500 µM, the IC50 [2] is reported as 16 µM and the “WT:NfsA” value [2] is reported as >781.

With `O=[N+]([O-])c1cn(Cc2cn(C(CO)CF)nn2)cn1` (stereo not drawn) [Compound 97, 3-fluoro-2-(4-((4-nitro-1H-imidazol-1-yl)methyl)-1H-1,2,3-triazol-1-yl)propan-1-ol] the “Rate of metabolism by NfrA (B.s)” value (NfrA (B.s)) was 3.9 µmol/min/mg, the “Rate of metabolism by NfsA (E.c)” value (NfsA (E.c)) was 4.3 µmol/min/mg and the “Rate of metabolism by NfsB (E.c)” value (NfsB (E.c)) was 1.4 µmol/min/mg. For the same compound, the “Rate of metabolism by YcnD (B.s)” value (YcnD (B.s)) was 6.2 µmol/min/mg, the IC50 [1] was > 12500 µM and the IC50 [2] was 178 µM. The “WT:NfsA” value [2] was >70, the “Reductive metabolism at the nitro moiety by NTR library members (NfsA and NfsB families)” value ([6]; 400 μM compound 67, 130 μM compound 93, 800 μM compound 97) was “reductively metabolised at the nitro moiety by the majority of the NfsA and NfsB families tested” and the “Metabolism by members of the NemA nitroreductase family” value ([6]; 800 μM compound 97) was “Modest metabolism”. For the same compound, the “Inhibition of bacterial cell growth in NTR over-expressing strains compared to controls” value [7] was “Inhibition of bacterial cell growth was selectively observed” and the melting point was 126 to 129 °C.

For `O=[N+]([O-])c1nccn1CC(O)CN1CCCCC1` (stereo not drawn) [pimonidazole, reference compound], the “Hypoxia-dependent binding in NCI-H1299 WT tumours, flow cytometry (FIG. 11)” value [8] was “hypoxic cells that are detected by pimonidazole adduct retention”.
